System: Mitochondria-located protein genes
Assay: DNA chip mRNA expression in yeast, mitochondria-located protein genes (Table 2)
Type: cell-based, Saccharomyces cerevisiae S288C
Conditions: cells incubated two hours with the chemical substance
Procedure: Yeast (Saccharomyces cerevisiae S288C (α SUC2mal mel gap2 CUP1)) were incubated at 25° C. on YPD medium (yeast extract 1%, polypepton 2%, glucose 2%). One of toxic chemical substances was added to the cells at logarithmic growth phase, and the cells were further incubated for two hours. Cells were cultured without any chemical substance in the same condition, and were used as control. Concentrations of the chemical substances were defined to inhibit the growth of the yeast but not lead to death.
After completion of the incubation, the culture was centrifuged to collect the cells. To the cells, sodium acetate buffer (50 mM sodium acetate, 10 mM EDTA, 1% SDS) was added, and the mixture was shaken at 65° C. for five minutes, followed by returning to room temperature, and obtaining the supernatant, of which the procedures were repeated two times. To the supernatant, ½ amount of a solution of phenol/chloroform was added, and the mixture was centrifuged to give a supernatant, which was added with an equal amount of chloroform, and the mixture was centrifuged to give a supernatant. To the supernatant, an equal amount of isopropanol containing 0.3 M sodium acetate was added, and the mixture was allowed to stand at room temperature for 30 minutes, after which the mixture was centrifuged to give a sediment of the whole RNAs. Seventy % ethanol was added to the sediment, and the mixture was again centrifuged to give a sediment, which was then dried and dissolved in water. mRNA was isolated from the whole RNAs as followings. In view of the fact that a poly A chain is attached to the 3′ terminus of mRNA, a polynucleotide having a poly T structure which was immobilized on the surface of latex beads was used to trap the mRNA, and then the mRNA was washed and eluted with spine column (Oligotex-dT30<Super>mRNA Purification Kit, Takara). Reverse transcription of the mRNA was conducted with a reverse transcriptase (Super Script II Reverse Transcriptase; catalogue No. 18064-014, GibcoBRL) using fluorescence-labeled nucleotides to give cDNAs that were introduced with Cy3-dUTP or Cy5-dUTP during the reverse transcription.
The labeled cDNAs were dissolved in TE buffer (10mM Tris-HCl/1 mM EDTA, pH8.0), and the solution was dropped on the DNA chip containing the whole genes of yeast (DNA Chip Research Inc. Japan) so that the cDNAs were hybridized on the DNA chip at 65° C. for over 12 hours. The fluoresces intensity of the DNA chip was read with a scanner, and the ratio relative to the fluorescence intensity resulting from the absence of chemical substance was estimated as the following, which is shown in Tables 1 to 9: […]

Measured: The level of expressed mRNA in the presence of chemical substance/The level of expressed mRNA in the absence of chemical substance

manganese ethylenebis(dithiocarbamate) [(8)]
2.3: yeast gene YKL142W
0.4: yeast gene YBL022C
1.1: yeast gene YBR044C | yeast gene YBR185C | yeast gene YDL067C | yeast gene YDL198C | yeast gene YEL039C | yeast gene YKL194C | yeast gene YMR083W | yeast gene YOR150W | yeast gene YPL040C | yeast gene YPL215W | yeast gene YPR037C
0.8: yeast gene YBL030C | yeast gene YBL099W | yeast gene YBR221C | yeast gene YER178W | yeast gene YGL018C | yeast gene YGR062C | yeast gene YGR082W | yeast gene YJR045C | yeast gene YJR077C | yeast gene YKL141W | yeast gene YKL148C | yeast gene YLL041C | yeast gene YLR259C | yeast gene YMR152W | yeast gene YOR130C | yeast gene YOR142W | yeast gene YOR316C
1.2: yeast gene YAL039C | yeast gene YDR298C | yeast gene YDR347W | yeast gene YKL003C | yeast gene YKL170W | yeast gene YLR295C | yeast gene YML129C | yeast gene YPR047W
1.9: yeast gene YDR258C | yeast gene YGR008C | yeast gene YGR076C
1.7: yeast gene YOR020C
0.9: yeast gene YBR003W | yeast gene YCR046C | yeast gene YDR178W | yeast gene YHR008C | yeast gene YJL102W | yeast gene YJL133W | yeast gene YLR348C | yeast gene YML120C | yeast gene YNL071W | yeast gene YNL104C | yeast gene YNL256W
1.8: yeast gene YCL057W | yeast gene YGR244C
2.6: yeast gene YDR079W
1.4: yeast gene YBR282W | yeast gene YGR028W | yeast gene YJL166W | yeast gene YLR038C | yeast gene YMR023C | yeast gene YMR035W | yeast gene YPR134W
1.0: yeast gene YEL024W | yeast gene YIL155C | yeast gene YJL180C | yeast gene YLR395C | yeast gene YNL073W | yeast gene YOL096C | yeast gene YOR100C | yeast gene YOR176W | yeast gene YPL135W | yeast gene YPL262W
1.3: yeast gene YBR122C | yeast gene YBR251W | yeast gene YDR231C | yeast gene YDR377W | yeast gene YDR529C | yeast gene YJL096W | yeast gene YMR089C | yeast gene YPL134C
1.6: yeast gene YBL038W | yeast gene YGL191W | yeast gene YGR174C | yeast gene YKL016C
0.7: yeast gene YFL016C | yeast gene YGL187C | yeast gene YJR121W | yeast gene YKR066C | yeast gene YMR203W | yeast gene YNL055C | yeast gene YOR187W | yeast gene YPR024W
1.5: yeast gene YBR091C | yeast gene YCR083W | yeast gene YML054C | yeast gene YMR267W | yeast gene YOR037W
0.6: yeast gene YDL181W | yeast gene YLR304C

Reference: patent US8192962B2, “Processes for detecting toxic substances” (Daikin Industries, Ltd., priority 2001, dated 2012)
